Assay results published in PMC4102788, “Linking off-target kinase pharmacology to the differential cellular effects observed among PARP inhibitors” (Oncotarget, 2014).
pIC50: −log10 of the molar value.

How the values were obtained:
[1] = target: T1, human HIPK2 kinase (Homo sapiens, UniProt Q9H2X6); test: Human HIPK2 kinase in vitro inhibition assay (Cerep, LANCE); assay type: biochemical; conditions: human recombinant enzyme, 10 µM ATP
T1 construct: purchased Cerep (CRO that ran the assay) 2915 (781-H2)
T1 sequence (Q9H2X6 whole entry): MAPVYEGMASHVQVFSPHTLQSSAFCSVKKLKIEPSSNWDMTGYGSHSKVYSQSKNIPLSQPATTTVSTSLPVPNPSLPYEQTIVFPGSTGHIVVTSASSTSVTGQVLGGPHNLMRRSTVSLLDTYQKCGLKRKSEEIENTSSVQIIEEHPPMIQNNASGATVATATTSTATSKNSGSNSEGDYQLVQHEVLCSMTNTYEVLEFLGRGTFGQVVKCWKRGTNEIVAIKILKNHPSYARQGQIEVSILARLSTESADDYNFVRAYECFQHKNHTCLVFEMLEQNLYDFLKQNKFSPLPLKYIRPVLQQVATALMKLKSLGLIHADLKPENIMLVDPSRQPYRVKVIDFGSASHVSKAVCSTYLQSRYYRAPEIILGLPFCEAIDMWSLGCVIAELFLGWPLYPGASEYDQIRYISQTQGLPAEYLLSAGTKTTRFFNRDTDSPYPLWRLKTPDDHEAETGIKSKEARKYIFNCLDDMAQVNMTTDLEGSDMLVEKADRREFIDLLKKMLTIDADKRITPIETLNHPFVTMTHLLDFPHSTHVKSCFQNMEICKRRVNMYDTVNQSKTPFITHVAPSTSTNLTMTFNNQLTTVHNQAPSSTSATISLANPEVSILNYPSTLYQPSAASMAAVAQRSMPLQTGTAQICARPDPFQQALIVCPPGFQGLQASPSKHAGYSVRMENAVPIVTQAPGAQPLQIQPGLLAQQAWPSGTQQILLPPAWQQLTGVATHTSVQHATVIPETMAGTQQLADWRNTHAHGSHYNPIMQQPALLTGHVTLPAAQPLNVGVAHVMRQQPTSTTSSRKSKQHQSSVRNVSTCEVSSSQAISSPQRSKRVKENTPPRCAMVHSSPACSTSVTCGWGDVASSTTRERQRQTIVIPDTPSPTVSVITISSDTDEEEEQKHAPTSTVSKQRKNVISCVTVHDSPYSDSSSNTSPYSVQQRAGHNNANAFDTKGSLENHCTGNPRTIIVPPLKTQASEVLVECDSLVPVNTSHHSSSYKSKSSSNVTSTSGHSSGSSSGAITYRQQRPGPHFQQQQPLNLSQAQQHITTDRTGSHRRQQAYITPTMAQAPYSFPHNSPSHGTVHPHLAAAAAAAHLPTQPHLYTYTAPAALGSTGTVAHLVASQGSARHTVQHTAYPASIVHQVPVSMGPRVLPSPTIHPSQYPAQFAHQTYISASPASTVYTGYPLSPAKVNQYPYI
From the text: (§1) Rucaparib, veliparib and olaparib were purchased from Selleckchem. Kinase in vitro assays were perfomed at Cerep (www.cerep.fr) by measuring the phosphorylation of appropriate peptide substrates by human recombinant enzymes and using FRET as a detection method (a detailed description of each kinase assay is available in online supplementary data).
Human HIPK2 kinase in vitro inhibition assay
All details for the HIPK2 in vitro assay can be consulted in the Cerep Catalogue available online under references 2915 (781-H2): http://www.cerep.fr/cerep/users/pages/catalog/Affiche_CondExp_Test.asp?test=2915 Evaluation of the effects of compounds on the activity of the human HIPK2 quantified by measuring the phosphorylation of the substrate Ulight- […]
-amide (MBP) using a human recombinant enzyme and the […]
mixture is incubated for 30 min at room temperature. […] After 60 more min, the fluorescence transfer is measured at λex=337 nm, λem=620 nm and λem=665 nm using a microplate reader (Envision, Perkin Elmer). The enzyme activity is determined by dividing the signal measured at λem=665 nm by that measured at λem=620 nm (ratio). The results are expressed as a percent inhibition of the control enzyme activity. […]

[2] = target: T2, human ALK kinase (Homo sapiens, UniProt Q9UM73); test: Human ALK kinase in vitro inhibition assay (Cerep, LANCE); assay type: biochemical; conditions: human recombinant enzyme, 10 µM ATP
T2 construct: purchased Cerep (CRO that ran the assay) 2678 (768-alk)
T2 sequence (Q9UM73 19-1620): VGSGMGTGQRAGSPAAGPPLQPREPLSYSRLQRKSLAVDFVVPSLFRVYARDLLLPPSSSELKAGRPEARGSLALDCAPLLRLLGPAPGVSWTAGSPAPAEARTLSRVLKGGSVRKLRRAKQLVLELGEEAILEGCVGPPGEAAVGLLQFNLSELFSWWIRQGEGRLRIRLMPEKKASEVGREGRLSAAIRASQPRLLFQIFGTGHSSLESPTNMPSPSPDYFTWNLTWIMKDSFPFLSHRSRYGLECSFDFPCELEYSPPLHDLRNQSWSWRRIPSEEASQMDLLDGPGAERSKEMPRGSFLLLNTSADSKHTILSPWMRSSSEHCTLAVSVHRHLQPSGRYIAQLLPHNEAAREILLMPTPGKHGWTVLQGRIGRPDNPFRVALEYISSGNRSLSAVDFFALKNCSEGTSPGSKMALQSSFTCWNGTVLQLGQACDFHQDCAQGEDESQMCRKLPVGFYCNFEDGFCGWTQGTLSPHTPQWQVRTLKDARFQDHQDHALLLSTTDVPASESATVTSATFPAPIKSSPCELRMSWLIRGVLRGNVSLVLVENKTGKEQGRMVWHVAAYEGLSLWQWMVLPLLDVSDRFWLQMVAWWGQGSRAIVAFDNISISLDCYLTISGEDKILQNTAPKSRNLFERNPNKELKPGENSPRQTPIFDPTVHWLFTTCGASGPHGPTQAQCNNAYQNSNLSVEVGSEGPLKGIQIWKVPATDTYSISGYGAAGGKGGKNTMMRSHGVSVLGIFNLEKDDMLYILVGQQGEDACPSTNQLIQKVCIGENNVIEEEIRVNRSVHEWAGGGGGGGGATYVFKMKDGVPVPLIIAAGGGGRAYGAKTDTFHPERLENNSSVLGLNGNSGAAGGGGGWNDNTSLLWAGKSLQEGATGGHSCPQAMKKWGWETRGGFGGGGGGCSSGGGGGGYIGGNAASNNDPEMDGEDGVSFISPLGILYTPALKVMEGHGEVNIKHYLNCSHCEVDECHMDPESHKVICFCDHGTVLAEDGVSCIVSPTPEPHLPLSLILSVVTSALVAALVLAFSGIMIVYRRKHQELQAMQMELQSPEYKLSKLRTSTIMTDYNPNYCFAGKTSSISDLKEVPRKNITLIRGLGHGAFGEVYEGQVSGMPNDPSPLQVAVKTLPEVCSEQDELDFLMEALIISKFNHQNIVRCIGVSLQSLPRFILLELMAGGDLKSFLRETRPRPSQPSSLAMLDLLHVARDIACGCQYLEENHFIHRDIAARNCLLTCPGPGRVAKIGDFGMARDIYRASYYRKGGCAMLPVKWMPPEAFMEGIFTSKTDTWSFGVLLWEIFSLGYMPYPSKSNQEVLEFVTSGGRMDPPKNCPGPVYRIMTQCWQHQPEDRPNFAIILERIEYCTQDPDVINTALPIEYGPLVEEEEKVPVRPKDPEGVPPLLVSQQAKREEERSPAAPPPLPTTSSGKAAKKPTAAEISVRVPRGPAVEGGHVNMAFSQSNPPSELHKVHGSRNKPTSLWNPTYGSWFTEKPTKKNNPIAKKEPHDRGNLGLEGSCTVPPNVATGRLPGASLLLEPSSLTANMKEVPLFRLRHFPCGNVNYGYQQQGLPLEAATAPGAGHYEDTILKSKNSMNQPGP
From the text: as §1
Human CDC7 kinase in vitro inhibition assay
All details for the CDC7 in vitro assay can be consulted in the Cerep Catalogue available online under references 2764 (749-cdc7): […]
http://www.cerep.fr/cerep/users/pages/catalog/Affiche_CondExp_Test.asp?test=2764 Evaluation of the effects of compounds on the activity of the human CDC7/ASK quantified by measuring the phosphorylation of the substrate […]
Ulight-[…] […]
labeled with europium chelate is added. After 60 more min, the fluorescence transfer is measured at λex=337 nm, λem=620 nm and λem=665 nm using a microplate reader (Envision, Perkin Elmer). The enzyme activity is determined by dividing the signal measured at λem=665 nm by that measured at λem=620 nm (ratio). The results are expressed as a percent inhibition of the control enzyme activity. […]
ALK quantified by measuring the phosphorylation of the substrate Ulight- […]
europium chelate is added. After 60 more min, the fluorescence transfer is measured at […]
λex=337 nm, λem=620 nm and λem=665 nm using a microplate reader (Envision, […]

CNCc1ccc(-c2[nH]c3cc(F)cc4c3c2CCNC4=O)cc1 [rucaparib]
pIC50 [1]: 5.36 | pIC50 [2]: 4.74
